US20100267753A1, “METHODS OF TREATING DISORDERS ASSOCIATED WITH PROTEIN KINASE CK2 ACTIVITY” (priority 2009, published 2010)
Several values for one entry are separate records, joined by “and”; a condition that tells them apart may be missing. Equal values may be shown once. Read-outs that look alike come from different tables or passages of the source.

Assays:
fresh human PBMCs = assay: PBMC assay, host cell cytotoxicity; assay type: cell-based; settings: for CC50: PBMCs, read-out: TC50 (the source's name)
[1] = Pharmacokinetics in mouse (IV bolus or oral dose); assay type: in vivo; settings: mice; for Cmax: read-out: Cmax-obs; for half-life: read-out: t1/2 (converted)
Experimental: The pharmacokinetics properties of drugs were investigated in three species, following an intravenous (IV) bolus or oral (PO) dose of Compound K at the dosages indicated in the chart. Blood samples were collected at predetermined times and the plasma separated. Plasma was separated from the blood samples collected at 5, 15 and 30 minutes and 1, 2, 4, 8 and 24 hours post-dose.
Drug levels were quantified by the LC/MS/MS method described below. Noncompartmental pharmacokinetic analysis was applied for intravenous administration. […] The terminal t1/2 and C0 were calculated using the last three and the first three data points, respectively
Bioanalysis was performed using a Quattro Micro LC/MS/MS instrument in the MRM detection mode, with an internal standard (1S). Briefly, 15 μL plasma samples were prepared for analysis using protein precipitation with 120 μL of acetonitrile. The supernatants were transferred into a 96 well plate and subjected to LC-MS/MS analysis using a Phenomenex Polar-RP HPLC column. The mobile phases were 10 mM NH4HCO3 in water (Solution-A) and 10 mM NH4HCO3 in methanol (Solution-B). The column was initially equilibrated with 25% Solution-B and followed with 100% Solution B over 5 minutes. […] Quantitation of the analytes was performed in the batch mode with two bracketing calibration curves according to the bioanalytical sample list.

HIV-1 = assay: U1 latent infection assay, antiviral (reverse transcriptase); assay type: cell-based; settings: U1 latent/induced
Experimental: Histocytic leukemia cell line U937, latently infected with HIV-1, are treated with TNFα to induce virus expression in the presence of test compound. Antiviral activity is determined as a reduction in reverse transcriptase after 72 hr incubation.
(§1) TI=TC/IC; also referred to as Therapeutic Index values (TI) or Antiviral Index (AI)
The histocytic leukemia cell line U937, latently infected with HIV-1, was treated with TNFα to induce virus expression in the presence of test compound. Antiviral activity was determined as a reduction in reverse transcriptase after 72 hr incubation. Temacrazine, an inhibitor of HIV transcription initiation, was used as the positive control for the assay.

[2] = U1 latent infection assay, host cell cytotoxicity; assay type: cell-based; settings: human, U1 latent/induced, read-out: TC50
[3] = tested on: 92HT599 (CXCR4-tropic HIV-1 Subtype B virus); assay: PBMC assay, HIV-1 92HT599; assay type: cell-based; settings: Virus 92HT599, PBMCs
Experimental: (§2) Acute infection of HIV-1 isolates (CXCR4-tropic HIV-1 Subtype B and CCR5-tropic HIV-1 Subtype) using fresh human PBMCs from multiple donors (PMA and IL-2 stimulated). Antiviral activity determined as a reduction in reverse transcriptase after 7-day incubation.
as §1
(§3) Antiviral activity was determined as a reduction in reverse transcriptase after 7-day incubation. AZT, a nucleoside analog reverse transcriptase inhibitor, was used as the positive control for the assay.
(§4) 92HT599 is a CXCR4-tropic HIV-1 Subtype B virus. 91US005 is CCR5-tropic HIV-1 Subtype B virus.

[4] = tested on: 91US005 (CCR5-tropic HIV-1 Subtype B virus); assay: PBMC assay, HIV-1 91US005; assay type: cell-based; settings: Virus 91US005, PBMCs
Experimental: as §2, §1, §3, §4

[5] = PBMC assay, host cell cytotoxicity; assay type: cell-based, human; settings: human; PBMCs; read-out: TC50
[6] = tested on: CFA-induced thermal hyperalgesia; assay: CFA-induced thermal hyperalgesia model (Hargreaves); assay type: in vivo, ICR mice; settings: single intraperitoneal dose 50 mg/kg; 1, 2, and 4 hours after administration
Experimental: The observations of pain responses were done blindly.
[…] On day 4, test subjects received a single injection of CFA (20 microliters) subcutaneously in the plantar surface of the left rear paw. CFA was injected subcutaneously into the plantar surface of the left hind paw of each test subject, under isoflurane anesthesia. […] On day 5, thermal responses were measured prior to treatment with the compound and again 1, 2, and 4 hours after treatment with […]. Withdrawal latencies were measured in response to thermal stimulus by the Hargreaves method. Naproxen was used as a positive control.

[7] = tested on: eight CCR5-tropic HIV-1 clinical isolates; assay: CCR5-tropic HIV-1 clinical isolates in fresh human PBMCs; assay type: cell-based; settings: FIG. 5, fresh human PBMCs
[8] = tested on: formalin-induced persistent pain; assay: Formalin-induced persistent pain model (flinching); assay type: in vivo, ICR mice; settings: 3 mg/kg, subcutaneously injected, positive control
Experimental: See Hunskaar, et al., “The formalin test in mice: Dissociation between inflammatory and non-inflammatory pain,” Pain, vol. […] 89, 53-63 (2000). These tests were conducted with ICR mice, in accordance with guidelines established by the International Association for the Study of Pain. Compounds of the invention were used as solutions of about 3-20 mg/mL in aqueous solution at about pH 8. […] The test animals were monitored for at least 40 minutes, during which time the number of flinches occurring during each 5-minute period were observed and recorded. A cohort of 12 animals were used for each dose level of each compound tested.
The compounds were administered orally in a single dose, of 30, 100, and 200 mg/kg, one hour prior to injection of formalin Pain response was measured by flinching frequency.

[9] = tested on: U937, latently infected with HIV-1 (U1 cells); assay: U1 latent infection assay, host cell cytotoxicity; assay type: cell-based; settings: U1 latent/induced, 72 hr; read-out: TC50 (the source's name)
[10] = Human immunodeficiency virus 1, PBMC, 168 h, 7-day incubation
[11] = Human immunodeficiency virus 1, PBMC
[12] = Human immunodeficiency virus 1, 72 h, 72 hr, positive control
[13] = TNFα, reverse transcriptase after 72 hr

O=C(O)c1ccc2c(c1)nc(Nc1cccc(C(F)(F)F)c1)c1nc(NC3CC3)ncc12 [Compound 2]
cytotoxicity in PBMC's (fresh human PBMCs): minimal cytotoxicity

C#Cc1cccc(Nc2nc3cc(C(=O)O)ccc3c3cncnc23)c1 [Compound 1, 5-(3-ethynylphenylamino)pyrimido[4,5-c]quinoline-8-carboxylic acid]
CLs ([1]; IV 5.4 mg/kg): 5.28 mL/min/kg
Cp0-exp ([1]; IV 5.4 mg/kg): 29442.03 ng/mL
Kel ([1]; IV 5.4 mg/kg): 0.0678 h⁻¹
F(0-24 h) ([1]; PO 10.8 mg/kg): 7.2%
F(0-Inf) ([1]; PO 10.8 mg/kg): 11.0%
Kel ([1]; PO 10.8 mg/kg): 0.0323 h⁻¹
AUC(0-t) ([1]; mouse, plasma, iv, 5.4 mg/kg, AUC(0-8 h), IV 5.4 mg/kg): 11200 ng·h/mL
AUC(0-t) ([1]; mouse, plasma, iv, 5.4 mg/kg, IV 5.4 mg/kg, read-out: AUC(0-24 h)): 15300 ng·h/mL
AUC(0-t) ([1]; mouse, plasma, po, 10.8 mg/kg, AUC(0-8 h), PO 10.8 mg/kg): 1050 ng·h/mL
AUC(0-t) ([1]; mouse, plasma, po, 10.8 mg/kg, PO 10.8 mg/kg, read-out: AUC(0-24 h)): 2210 ng·h/mL
AUC(0-inf) ([1]; mouse, plasma, IV 5.4 mg/kg): 17000 ng·h/mL
Cmax ([1]; mouse, plasma, IV 5.4 mg/kg): 21800 ng/mL
Vd ([1]; mouse, plasma, IV 5.4 mg/kg, read-out: Vd): 4.67 L/kg
half-life ([1]; mouse, plasma, IV 5.4 mg/kg): 10.2 h
AUC(0-inf) ([1]; mouse, plasma, PO 10.8 mg/kg): 3760 ng·h/mL
Tmax ([1]; mouse, plasma, PO 10.8 mg/kg): 0.25 h
Cmax ([1]; mouse, plasma, PO 10.8 mg/kg): 800 ng/mL
half-life ([1]; mouse, plasma, PO 10.8 mg/kg): 21.5 h

O=C(O)c1ccc2c(c1)nc(Nc1cccc(Cl)c1)c1ccncc12 [Compound K Na]
IC90 (HIV-1; Human immunodeficiency virus 1, 72 h, 72 hr): 18000 nM
IC50 (HIV-1; Human immunodeficiency virus 1, 72 h, TNFα, reverse transcriptase after 72 hr): 700 nM
TI (TC50/IC50) (HIV-1): 15.2
CC50 at 72 h [2]: 10600 nM
IC50 [3, 10]: 3490 nM
IC90 [3, 11]: 8250 nM
TI (TC50/IC50) [3]: 2.18
IC50 [4, 10]: 1070 nM
IC90 [4, 11]: 3050 nM
TI (TC50/IC50) [4]: 7.13
CC50 at 7 days [5]: 7610 nM

O=c1c2ccccc2n2nnc3ccc(NCCCN4CCN(CCCNc5ccc6nnn7c8ccccc8c(=O)c5c67)CC4)c1c32 [Temacrazine, reference compound]
IC50 (HIV-1; [12]): 3.56 nM
IC90 (HIV-1; [12]): 17.9 nM
TI (TC50/IC50) (HIV-1): >28.1 and >27.4
IC50 (HIV-1; 72 hr, positive control): 3.64 nM
IC90 (HIV-1; 72 hr, positive control): 16.9 nM
CC50 at 72 h ([2]; positive control): > 100 nM

COc1ccc2cc([C@H](C)C(=O)O)ccc2c1 [naproxen, reference compound]
effect on CFA-induced thermal hyperalgesia [6]: significantly reversed the CFA-induced thermal hyperalgesia

Cc1cn([C@H]2C[C@H](N=[N+]=[N-])[C@@H](CO)O2)c(=O)[nH]c1=O [AZT, reference compound]
TI (TC50/IC50) [3]: >665
IC50 ([3]; positive control): 1.5 nM
IC90 ([3]; positive control): 7.58 nM
TI (TC50/IC50) [4]: >611
IC50 ([4]; positive control): 1.64 nM
IC90 ([4]; positive control): 6.86 nM
CC50 (fresh human PBMCs; positive control): > 1000 nM
HIV-1 93TH073 Clade E replication [7]: inhibition of HIV-1 93TH073 Clade E replication

CN1CC[C@]23c4c5ccc(O)c4O[C@H]2[C@@H](O)C=C[C@H]3[C@H]1C5 [morphine, reference compound]
formalin-induced flinching, first phase [8]: reduced formalin-induced flinching
formalin-induced flinching, second phase [8]: reduced formalin-induced flinching

O=C([O-])c1ccc2c(c1)nc(Nc1cccc(C(F)(F)F)c1)c1nc(NC3CC3)ncc12.[Na+] [Compound 2 Na]
TI (TC50/IC50) (HIV-1): >30.9 and >30.7
IC90 (HIV-1; 72 hr): > 100000 nM
IC50 (HIV-1; [13]): 3240 nM and 3260 nM
CC50 [9]: > 100000 nM
IC90 [3]: 20600 nM
TI (TC50/IC50) [3]: 2.65
IC50 ([3]; 7-day incubation): 4520 nM
IC90 [4]: 3770 nM
TI (TC50/IC50) [4]: 59.6
IC50 ([4]; 7-day incubation): 200 nM
CC50 (fresh human PBMCs): 12000 nM

C#Cc1cccc(Nc2nc3cc(C(=O)[O-])ccc3c3cncnc23)c1.[Na+] [Compound 1 Na]
TI (TC50/IC50) (HIV-1): 87.3
IC90 (HIV-1; 72 hr): 9080 nM
IC50 (HIV-1; [13]): 200 nM
CC50 [9]: 17100 nM
IC90 [3]: 2770 nM
TI (TC50/IC50) [3]: 3.07
IC50 ([3]; 7-day incubation): 1150 nM
IC90 [4]: 1410 nM
TI (TC50/IC50) [4]: 35.8
IC50 ([4]; 7-day incubation): 100 nM
CC50 (fresh human PBMCs): 3530 nM
